Data on 41 compounds can be found in patent US20240360114A1 (SIRONAX LTD., priority 2021, published 2024).

The structures appear in SMILES notation.

For one test, the system named is HT-1080 cells. In words: HT-1080 cell viability assay (ferroptosis induced by RSL3, Cell Titer-Glo). It counts as cell-based. To be noted: Homo sapiens, HT-1080, 20 h, ferroptosis inducer RSL3, 20 hours, ferroptosis inhibitory activity, Table 2. In a few lines:
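EC50 fitted by sigmoidal dose-response regression on luminescent viability data normalized to untreated cells. Compounds ran as a 10-point, 3-fold series from 1.1 μM alongside RSL3 for 20 hours, after overnight seeding.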
A general note: In ATP-based viability assays light output follows the ATP content of the culture.
In general, EC50 refers to the concentration needed to bring the measured effect to its halfway point. Higher therefore signals a less potent agent. For `Cc1cc(N2CC(C)OC(C)C2)c(C)cc1NC[C@H]1CC[C@H](N)CC1` (some centres unmarked) [Compound 453, N-(((1r,4r)-4-aminocyclohexyl)methyl)-4-(2,6-dimethylmorpholino)-2,5-dimethylaniline], the EC50 lay within 0.1 to 100 nM.

The compound `CC(C)(C)c1ccc(NCc2cnc[nH]2)cc1` [Compound 130, N-((1H-imidazol-5-yl)methyl)-4-(tert-butyl)aniline] displayed an EC50 of 100 to 1000 nM.

As for `CC1(N)CCC(Nc2ccc(C(C)(C)C)cc2)CC1` (single isomer, unassigned) [Compound 231A, N1-(4-(tert-butyl)phenyl)-4-methylcyclohexane-1,4-diamine], the EC50 is 0.1 to 100 nM.

In turn, `CC(C)(C)c1ccc(NCC2CCC(N)C2)cc1` (centres unmarked) [Compound 328, N-((3-aminocyclopentyl)methyl)-4-(tert-butyl)aniline] had an EC50 of 0.1 to 100 nM.

`CCOCC(C)(C)c1ccc(NC2CCC(N)CC2)cc1` (centres unmarked) [Compound 320A, N1-(4-(1-ethoxy-2-methylpropan-2-yl)phenyl)cyclohexane-1,4-diamine] gave a concentration for a half-maximal effect (EC50) of 100 to 1000 nM.

In the case of `Cc1nc(N2CC(C)N(CC(F)(F)F)C(C)C2)ccc1NC1CC2(CC(N)C2)C1` (centres unmarked) [Compound 493, N2-(6-(3,5-dimethyl-4-(2,2,2-trifluoroethyl)piperazin-1-yl)-2-methylpyridin-3-yl)spiro[3.3]heptane-2,6-diamine], the EC50 was 0.1 to 100 nM.

In the case of `CC(C)(C)Nc1ccc(N2CCC(C(F)(F)F)CC2)cc1` [Compound 11, N-(tert-butyl)-4-(4-(trifluoromethyl)piperidin-1-yl)aniline], the EC50 fell in the range of 100 to 1000 nM.

The compound `NC1CCC(Nc2ccc3c(c2)OCC3)CC1` (centres unmarked) [Compound 166, N1-(2,3-dihydrobenzofuran-6-yl)cyclohexane-1,4-diamine] had an EC50 of 1000 to 10000 nM.

The compound `CC(C)C1CCN(c2ncc(NC3CC(CN)C3)cn2)CC1` (centres unmarked) [Compound 49, N-(3-(aminomethyl)cyclobutyl)-2-(4-isopropylpiperidin-1-yl)pyrimidin-5-amine] registered an EC50 of 0.1 to 100 nM.

Take `CC[C@@H]1CN(c2ccc(NC3CCC(N)CC3)c(C)n2)C[C@@H](CC)O1` (stereo partly drawn) [Compound 552, N1-(6-((2R,6R)-2,6-diethylmorpholino)-2-methylpyridin-3-yl)cyclohexane-1,4-diamine]: the EC50 was 0.1 to 100 nM.

The compound `CC1(C)CCC(c2ccc(NC3CCC(CCNC(=O)[C@H]4CC(=O)NC(=O)N4)CC3)cc2)CC1` (stereo partly drawn) [Compound 244A, (R)—N-(2-(4-((4-(4,4-dimethylcyclohexyl)phenyl)amino)cyclohexyl)ethyl)-2,6-dioxohexahydro pyrimidine-4-carboxamide] registered an EC50 of 0.1 to 100 nM.

`CC1CC(C)CN(c2ccc(NC[C@H]3CC[C@H](N)CC3)cc2)C1` (some centres unmarked) [Compound 522, N-(((1r,4r)-4-aminocyclohexyl)methyl)-4-(3,5-dimethylpiperidin-1-yl)aniline] gave an EC50 of 0.1 to 100 nM.

Compound `Cc1nc(N2CCC3(CCCOC3)CC2)ccc1NC1CC2(CC(N)C2)C1` (centres unmarked) [Compound 533, N2-(2-methyl-6-(2-oxa-9-azaspiro [5.5]undecan-9-yl)pyridin-3-yl)spiro[3.3]heptane-2,6-diamine] came in with an EC50 of 0.1 to 100 nM.

In the case of `CCC1CCN(c2ccc(NC3CCC(N)CC3)cc2)CC1` (centres unmarked) [Compound 61, N1-(4-(4-ethylpiperidin-1-yl)phenyl)cyclohexane-1,4-diamine], the concentration giving a half-maximal response (EC50) lay within 0.1 to 100 nM.

The compound `CC1CN(c2ccc(NC3C4CC5CC3CC(CN)(C5)C4)cc2)CC(C)O1` (centres unmarked) [Compound 426, 5-(aminomethyl)-N-(4-(2,6-dimethylmorpholino)phenyl)adamantan-2-amine] returned an EC50 of 0.1 to 100 nM.

The compound `NCCC1CCC(Nc2ccc3c(c2)CCC3)CC1` (centres unmarked) [Compound 264, N-(4-(2-aminoethyl)cyclohexyl)-2,3-dihydro-1H-inden-5-amine] gave an EC50 of 0.1 to 100 nM.

`Cc1cc(N2CC3(COC3)C2)ccc1NC1CC2(CC(N)C2)C1` (centres unmarked) [Compound 482, N2-(2-methyl-4-(2-oxa-6-azaspiro[3.3]heptan-6-yl)phenyl)spiro[3.3]heptane-2,6-diamine] yielded a concentration giving a half-maximal response (EC50) of 0.1 to 100 nM.

In the case of `NC1CC2(C1)CC(Nc1cnc(N3CCC(C(F)(F)F)CC3)nc1)C2` (centres unmarked) [Compound 359, N2-(2-(4-(trifluoromethyl)piperidin-1-yl)pyrimidin-5-yl)spiro[3.3]heptane-2,6-diamine], the EC50 fell in the range of 0.1 to 100 nM.

`O=C(NO)C1CC2(CC(Nc3cnc(N4CCC(C(F)(F)F)CC4)nc3)C2)C1` (centres unmarked) [Compound 428, N-hydroxy-6-((2-(4-(trifluoromethyl)piperidin-1-yl)pyrimidin-5-yl)amino)spiro[3.3]heptane-2-carboxamide] registered an EC50 of 0.1 to 100 nM.

For `NC1CCC(Nc2cccnc2)CC1` (centres unmarked) [Compound 163, N1-(pyridin-3-yl)cyclohexane-1,4-diamine], the EC50 lay within 1000 to 10000 nM.

On to `CC1CN(c2ccc(NC[C@H]3CC[C@H](N)CC3)cc2F)CC(C)O1` (some centres unmarked) [Compound 430, N-(((1r,4r)-4-aminocyclohexyl)methyl)-4-(2,6-dimethylmorpholino)-3-fluoroaniline], for which the EC50 lay in the range of 0.1 to 100 nM.

As for `CNC1CCC(Nc2ccc(C(C)(C)C)cc2)CC1` (centres unmarked) [Compound 147, N1-(4-(tert-butyl)phenyl)-N4-methylcyclohexane-1,4-diamine], the EC50 fell in the range of 0.1 to 100 nM.

The compound `Cc1nc(N2CC3(CCOCC3)C2)ccc1NC1CC2(CC(N)C2)C1` (centres unmarked) [Compound 494, N2-(2-methyl-6-(7-oxa-2-azaspiro[3.5]nonan-2-yl)pyridin-3-yl)spiro[3.3]heptane-2,6-diamine] registered an EC50 of 100 to 1000 nM.

Compound `CC[C@@H]1CN(c2ccc(NC3CC4(CC(N)C4)C3)c(C)n2)C[C@H](C)O1` (stereo partly drawn) [Compound 546, N2-(6-((2R,6S)-2-ethyl-6-methylmorpholino)-2-methylpyridin-3-yl)spiro[3.3]heptane-2,6-diamine] registered a concentration for a half-maximal effect (EC50) of 0.1 to 100 nM.

With `Cc1nc(N2CCC(C(F)(F)F)CC2)ccc1NC[C@H]1CC[C@H](N)CC1` [Compound 371, N-(((1r,4r)-4-aminocyclohexyl)methyl)-2-methyl-6-(4-(trifluoromethyl)piperidin-1-yl)pyridin-3-amine], the EC50 is 0.1 to 100 nM.

The compound `NC1CCC(Nc2ccc(N3CCC(C(F)(F)F)CC3)cc2F)CC1` (centres unmarked) [Compound 71, N1-(2-fluoro-4-(4-(trifluoromethyl)piperidin-1-yl)phenyl)cyclohexane-1,4-diamine] yielded an EC50 of 0.1 to 100 nM.

Regarding `CC(C)(C)c1ccc(NC2CCC(O)C(O)C2)cc1` (centres unmarked) [Compound 255, 4-((4-(tert-butyl)phenyl)amino)cyclohexane-1,2-diol], the EC50 lay within 1000 to 10000 nM.

In turn, `CCN1CCC(Nc2ccc(N3CCC(C(F)(F)F)CC3)cc2)CC1` [Compound 5, 1-ethyl-N-(4-(4-(trifluoromethyl)piperidin-1-yl)phenyl)piperidin-4-amine] gave a concentration for a half-maximal effect (EC50) of 0.1 to 100 nM.

Consider `CC(C)(C)c1ccc(NC[C@H]2CC[C@H](NCCO)CC2)cc1` [Compound 323, 2-(((1r,4r)-4-(((4-(tert-butyl)phenyl)amino)methyl)cyclohexyl)amino)ethan-1-ol], for which the half-maximal effective concentration (EC50) lay within 0.1 to 100 nM.

Still in this test, the particulars now being: Homo sapiens, HT-1080, 20 h, ferroptosis inducer RSL3, 20 hours, ferroptosis inhibitory activity, Table 3.
Compound `Cc1nc(NC(C)(C)C)ccc1NC[C@H]1CC[C@H](N)CC1` [Compound 595, N^5-(((1r,4r)-4-aminocyclohexyl)methyl)-N^2-(tert-butyl)-6-methylpyridine-2,5-diamine] registered an EC50 of 0.1 to 100 nM.

In the case of `COCCN(CC(F)(F)F)c1ccc(NC2CC3(CC(N)C3)C2)c(C)n1` (centres unmarked) [Compound 660, N^5-(6-aminospiro[3.3]heptan-2-yl)-N^2-(2-methoxyethyl)-6-methyl-N2-(2,2,2-trifluoroethyl)pyridine-2,5-diamine], the EC50 lay within 0.1 to 100 nM.

The compound `Cc1nc(N2CCC3(CCOCC3)CC2)ccc1NC[C@H]1CC[C@H](N)CC1` [Compound 582, N-(((1r,4r)-4-aminocyclohexyl)methyl)-2-methyl-6-(3-oxa-9-azaspiro [5.5]undecan-9-yl)pyridin-3-amine] came in with an EC50 of 0.1 to 100 nM.

With `CC1CN(c2ccc3cc(NC4CC5(CC(N)C5)C4)ccc3c2)CCO1` (centres unmarked) [Compound 648], the EC50 is 0.1 to 100 nM.

The compound `CC1CN(c2ccc3cc(N[C@H]4CC[C@@H](C(N)=O)CC4)ccc3c2)CC(C)O1` (some centres unmarked) [Compound 632, (1s,4s)-4-((6-(2,6-dimethylmorpholino)naphthalen-2-yl)amino)cyclohexane-1-carboxamide] gave a half-maximal effective concentration (EC50) of 0.1 to 100 nM.

Take `Cc1nc(N2CC(C)OC(C(F)(F)F)C2)ccc1NC[C@H]1CC[C@@H](N)CC1` (some centres unmarked) [Compound 598, N-(((1s,4s)-4-aminocyclohexyl)methyl)-2-methyl-6-(2-methyl-6-(trifluoromethyl)morpholino)pyridin-3-amine]: the half-maximal effective concentration (EC50) fell in the range of 0.1 to 100 nM.

Take `Cc1nc(NC(C)(C)C)ccc1NC1CC2(CC(N)C2)C1` (centres unmarked) [Compound 596, N^5-(6-aminospiro [3.3]heptan-2-yl)-N^2-(tert-butyl)-6-methylpyridine-2,5-diamine]: the EC50 is 0.1 to 100 nM.

Staying with this test, now noted: Homo sapiens, ferroptosis inducer RSL3, 20 hours, ferroptosis inhibitory activity, Table 2.
In turn, `FC(F)(F)C1CCN(c2ccc(NC3CCNCC3)cc2)CC1` [Compound 20, N-(4-(4-(trifluoromethyl)piperidin-1-yl)phenyl)piperidin-4-amine] had an EC50 of 0.1 to 100 nM.

The same test, now with this note: ferroptosis inducer RSL3, 20 hours, ferroptosis inhibitory activity, Table 2.
`NC1CCC(Nc2ccc(N3CCCCC3CO)cc2)CC1` (single isomer, unassigned) [Compound 417A, (1-(4-((4-aminocyclohexyl)amino)phenyl)piperidin-2-yl)methanol] returned an EC50 of 0.1 to 100 nM.

Compound `NCC1CCC(Nc2ccccc2)CC1` (single isomer, unassigned) [Compound 92B, N-(4-(aminomethyl)cyclohexyl)aniline] displayed an EC50 of 100 to 1000 nM.

Compound `CC1(N)CCC(Nc2ccc3c(c2)CCCC3)CC1` (centres unmarked) [Compound 285, 1-methyl-N4-(5,6,7,8-tetrahydronaphthalen-2-yl)cyclohexane-1,4-diamine] returned an EC50 of 0.1 to 100 nM.

Compound `CC1CC(N)CCC1Nc1ccc(C(C)(C)C)cc1` (single isomer, unassigned) [Compound 252A, N1-(4-(tert-butyl)phenyl)-2-methylcyclohexane-1,4-diamine] showed an EC50 of 100 to 1000 nM.
